{
  "source": "paper PMC6745035",
  "about": "“Novel tetrahydroacridine derivatives with iodobenzoic moieties induce G0/G1 cell cycle arrest and apoptosis in A549 non-small lung cancer and HT-29 colorectal cancer cells” (Molecular and Cellular Biochemistry, 2019)",
  "assay_type_in_all_cases": "cell-based, human",
  "key": {"A549 cells [1]": {"test_system": "A549 cells", "experiment": "MTT cytotoxicity assay, A549", "conditions": "Homo sapiens, A549, 24 h, MTT, 24 h incubation; read-out: IC50 µM ± SD against A549", "from_the_text": "A549 cell line (lung carcinoma from human) (European Collection of Cell Culture) and HT-29 cell line (colorectal adenocarcinoma from human) (American Type Culture Collection) were chosen to evaluate the cytotoxicity of novel compounds.\n(§1) The MTT assay was used to evaluate cell metabolic activity. The test principle is based on the determination of cell viability by measuring the metabolic activity in mitochondria. Enzymatically active mitochondria reduce the water-soluble MTT (3-(4,5-dimethylthiazol-2-yl)-2,5 diphenyltetrazoliumbromide) to blue–violet insoluble formazan. The number of viability cells is proportional to the colour intensity determined by photometric measurements (an analytical wavelength 570 nm) after dissolving the formazan in Dimethylsulfoxide (DMSO) (Serva) and Sorensen’s glycine buffer. MTT (Sigma Aldrich) was dissolved in Phosphate Buffered Saline (PBS) (PAN-Biotech) at a concentration of 0.5 mg/mL. Sorensen’s glycine buffer is made of 0.1 M glycine and 0.1 M NaCl, at pH 10.5. Studied compounds were dissolved in DMSO in order to receive stock solutions.\n(§2) For the assay, cells were seeded into 96-well plates at density 10^4 cells per well and cultured for 24 h at 37 °C and 5% CO2. Then medium was removed, and cells were exposed to the 100 µL of the compound solutions over a range of concentrations (final DMSO concentration was below 0.2%) or nothing but culture medium (blank control). Pure DMSO was used as a positive control. After 24 h of incubation with the compound solutions, medium was removed and 50 µL of the MTT solution was added to each well and incubated in the dark for additional 2 h at 37 °C. Then the MTT solution was carefully removed and 100 µL of DMSO was added. Plates were incubated for 10 min at room temperature. Finally, 5 µL of Sorensen Buffer was added to each well. Plate was swayed, and the absorbance was measured by using microplate reader (Synergy H1, BioTek, Winooski, VT, USA) at a wavelength of 570 nm. The cell viability was expressed as a percentage of the control values (blank). The experiments were done in triplicate."}, "EA.hy926 cells": {"test_system": "EA.hy926 cells", "experiment": "MTT cytotoxicity assay, EA.hy926", "conditions": "Homo sapiens, EA.hy 926, 24 h, MTT, 24 h incubation; read-out: IC50 µM ± SD against EA.hy926", "from_the_text": "The EA.hy926 cells (the human umbilical vein, somatic cell hybrid) (American Type Culture Collection) are immortalized human umbilical vein endothelial cells. They have morphological, phenotypic and functional characteristics of human endothelial cells, without the limited lifespan. This cell line has been considered as a good model for anticancer drug screening and was chosen to evaluate the endothelial cytotoxicity of novel compounds.\nas §1, §2"}, "A549 cells [2]": {"test_system": "A549 cells", "experiment": "Cell cycle analysis (PI, flow cytometry), A549", "conditions": "A549, 24 h, 10 µM", "procedure": "(§3) Then, compounds were added into the wells and cells were further incubated for 24 h. After incubation, monolayer and supernatant cells were harvested and washed in PBS. Then, cells were centrifuged (monolayer—1200 rpm for 10 min, supernatant 3500 rpm for 10 min) and fixed in cold 70% ethanol. Pellets were kept at 4 °C for at least 2 h. Prior to analysis, cells were centrifuged and re-suspended in RNAsi (type 1-A; Sigma Aldrich)—PBS working solution (200 µg/mL). Samples were incubated at 37 °C for 10 min. At the end, 3 µL of 2 mg/mL propidium iodide (PI) (Sigma Aldrich) solution was added to each sample. Samples were kept in the dark prior to analysis. Analysis was performed on BD Accuri C6 Flow Cytometry (Becton–Dickinson). Etoposide (Calbiochem) was used as a reference drug. Experiments were done in triplicates."}, "HT-29 cells [3]": {"test_system": "HT-29 cells", "experiment": "Cell cycle analysis (PI, flow cytometry), HT-29", "conditions": "HT-29, 24 h, 10 µM", "procedure": "as §3"}, "A549 cells [4]": {"test_system": "A549 cells", "experiment": "Apoptosis assay by annexin-V/PI double staining, A549", "conditions": "A549, 24 h, 75 µM; control 7.80%", "procedure": "(§4) Compounds were added to the cells and further incubated for 24 h. After treatment, monolayer and supernatant cells were harvested, washed with PBS and centrifuged (monolayer at 1200 rpm for 10 min, supernatant at 3500 rpm for 10 min). Then, cells were re-suspended in binding buffer and stained with 2 µL of Annexin-V and […] of PI (ANNEXIN-V—FITC Apoptosis Detection Kit, Immunostep) in the dark for 10 min at room temperature. Cells were analysed by BD Accuri C6 Flow Cytometry (Becton–Dickinson). Etoposide (Calbiochem) was used as a reference drug. Experiments were done in triplicates."}, "HT-29 cells [5]": {"test_system": "HT-29 cells", "experiment": "Apoptosis assay by annexin-V/PI double staining, HT-29", "conditions": "HT-29, 24 h, 25 µM; control 8.62%", "procedure": "as §4"}},
  "data": [
    {"smiles": "COc1cc([C@@H]2c3cc4c(cc3[C@@H](O[C@@H]3O[C@@H]5CO[C@@H](C)O[C@H]5[C@H](O)[C@H]3O)[C@H]3COC(=O)[C@H]23)OCO4)cc(OC)c1O", "note": "[Etoposide, reference compound]", "values": [
      {"measurement": "IC50", "setting": "A549 cells [1]", "value": "451 ± 18.3", "unit": "µM"},
      {"measurement": "IC50", "setting": "EA.hy926 cells", "value": "155 ± 9.81", "unit": "µM"},
      {"measurement": "Cells in G0/G1 phase", "setting": "A549 cells [2]", "value": 27.31, "unit": "%"},
      {"measurement": "Cells in G2/M phase", "setting": "A549 cells [2]", "value": 66.02, "unit": "%"},
      {"measurement": "Cells in S phase", "setting": "A549 cells [2]", "value": 6.67, "unit": "%"},
      {"measurement": "Cells in G2/M phase", "setting": "HT-29 cells [3]", "value": 73.84, "unit": "%"},
      {"measurement": "Total apoptotic cells", "setting": "A549 cells [4]", "value": 43.46, "unit": "%"},
      {"measurement": "Total apoptotic cells", "setting": "HT-29 cells [5]", "value": 18.18, "unit": "%"}
    ]}
  ]
}
